The values below come from patent publication US9895352B2, “Indolinone compounds and uses thereof” (Oncternal Therapeutics, Inc., priority 2014, dated 2018).

The IC50 is the point on the concentration scale where inhibition reaches its midpoint. As a reminder, the half-life is the time needed for the level to fall by half in the phase considered.

SMILES strings stand for the structures. Read-outs that look alike come from different tables or passages of the source.

Series [1] deals with SKES cells (Ewing Sarcoma cell line). As to the kind of experiment: CCK-8 tetrazolium tumor cell growth inhibition, SKES. The conditions noted are these: Homo sapiens. In kind it is cell-based. As for the experimental part: A modified tetrazolium salt assay using the CCK-8 kit (Sigma-Aldrich; St Louis, Mo.) was used to measure the inhibition of human tumor cell growth. Tumor cells (5000-7500 per well) were added to 96 well plates and allowed to attach for 4-5 hours. Compounds were serially diluted and added in triplicate at a concentration of 0.02 to 5 μM. DMSO was included as a vehicle control. Cells were incubated in the presence of compound for 3 days. After incubation CCK-8 reagent was added to each well and incubated for 2-4 hours. Viable cells were quantitated spectrophotometrically at a wavelength of 450 nm. Percent viability of each sample was calculated from the A450 values as follows: % viability=(A450 nm sample/A450 nm DMSO-treated cells×100). […] IC50 activities of particular compounds were determined using SKES cells (Ewing Sarcoma cell line).

Series [2] is described as follows: Metabolic stability, half-life and clearance in human liver microsomes. In kind it is in vitro ADME. The conditions noted are these: for CLhep: hepatic clearance where blood flow = 20 mL/min/kg. As to the method: (§1) Half-life and clearance rates for certain compounds were assayed with human liver microsomes and human hepatocytes. […] At each time point (0, 5, 15, 30, 60, 90 min) the reactions were stopped, vortexed and centrifuged. Supernatents were frozen until LC/MS/MS analysis. The results for human liver microsomes and human hepactocytes are summarized in TABLE 9, and TABLE 10, respectively. Certain compounds were assayed with human liver microsomes (HLM) and human hepatocytes, and metabolites were detected. Briefly, metabolic stability was tested at one TA concentration (e.g., 1 μM) in duplicate. […] Incubations were saved and used for metabolite identification using LC/MS/MS. […] The slope of the linear regression from log percentage remaining versus incubation time relationships (−k) was determined by linear regression fitting. From the individual log percentage remaining time profiles, the mean half-life and intrinsic clearance were reported. UHPLC-HRMS or UHPLC-MS/MS experiment was performed on the authentic test articles to check for possible common fragment ions. […] The metabolites were summarized based on their mass spectrometry peak areas.

Series [3] is described as follows: Metabolic stability, half-life and clearance in human hepatocytes. In kind it is in vitro ADME. The conditions noted are these: for % remaining / half-life: Human hepatocytes; for CLhep: human hepatocytes, hepatic clearance where blood flow = 20 mL/min/kg. As for the experimental part: as §1
Series [4] can be described thus: Half-life in mouse hepatocytes. In kind it is in vitro ADME. The conditions noted are these: read-out: Half life of cmpds. As for the experimental part: (§2) In another study, metabolism of compounds in hepatocytes from various species was examined. Hepatocytes were contacted with a compound, and the half-life of the compound was determined.
Series [5] is described as follows: Half-life in rat hepatocytes. The format is in vitro ADME. The conditions noted are these: for half-life: read-out: Half life of cmpds. As to the method: as §2
Series [6] is described as follows: Half-life in dog hepatocytes. The format is in vitro ADME. The conditions noted are these: for half-life: read-out: Half life of cmpds. As to the method:
as §2

A short description of series [7]: Half-life in human hepatocytes. In kind it is in vitro ADME. The conditions noted are these: read-out: Half life of cmpds. As to the method: as §2
Test in series [8]: not given
This is another data set of the same source.

Test in series [9]: not given
The source holds these as a separate data set.

Test in series [10]: not given
The source holds these as a separate data set.

A short description of series [11]: in vitro. The conditions noted are these: rat, liver microsomes. Background: Liver microsomes are a subcellular fraction often used to study metabolism.
Series [12] is described as follows: in vitro. The conditions noted are these: mouse.
The mark [13] stands for this setting: 72 h, SKES cells, 3 days with compound, CCK-8 (TABLE 3).
The mark [14] stands for this setting: human liver microsome, no cofactor, 60 min.
The mark [15] stands for this setting: rat liver microsome, no cofactor, 60 min.
Where [16] appears, read: mouse liver microsome, no cofactor, 60 min.
Setting [17] is: dog liver microsome, no cofactor, 60 min.

`COc1ccc(C(=O)CC2(O)C(=O)Nc3c(Cl)ccc(Cl)c32)cc1` (racemic) [Cmpd 1, 4,7-Dichloro-3-hydroxy-3-[2-(4-methoxyphenyl-2-oxoethyl)]-1,3-dihydroindol-2-one]: the IC50 in series [1] (setting [13]) is less than 5 µM. Moreover, the “% remaining” value in series [2] was 5%; in series [3], 48%. Also, the half-life in series [2] came out at 10.3 min; in series [3], 226 min; in [4], 30.9 min; in series [5] it was 14.2 min; in series [6] it was 16.7 min; in [7], 45.5 min. Moreover, the CLhep in series [2] turned out to be 17.28 mL/min/kg; in [3] it was 8.7 mL/min/kg.
For the compound `CNc1ccc(C(=O)CC2(O)C(=O)Nc3c(Cl)ccc(Cl)c32)cc1` (racemic) [Cmpd 7, 4,7-dichloro-3-hydroxy-3-[2-[4-(methylamino)phenyl]-2-oxoethyl]-1H-indol-2-one], in [2], the “% remaining” value worked out at 49%, the half-life is more than 45 min and the CLhep is given as approximately 11.54 mL/min/kg. Also, in series [3], the “% remaining” value was determined as 100%, the half-life was more than 240 min and the CLhep is less than 8.7 mL/min/kg.
Turning to `O=C(CC1(O)C(=O)Nc2c(Cl)ccc(Cl)c21)c1ccc(C2CC2)cc1` (single isomer, unassigned) [Cmpd 13, 4,7-Dichloro-3-(2-(4-cyclopropylphenyl)-2-oxoethyl)-3-hydroxyindolin-2-one], the IC50 in series [1] (setting [13]) is more than 5 µM; in series [1] (SKES, ES, EWS-FLI1 Type 2), more than 5 µM. For the same compound, the “Remaining (NCF = 60 min)” value under setting [14] was 105.1%, the “Remaining (NCF = 60 min)” value in [8] (setting [15]) is 97.0%, the “Remaining (NCF = 60 min)” value in series [9] (setting [16]) was determined as 85.6% and the “Remaining (NCF = 60 min)” value in series [10] (setting [17]) worked out at 98.4%.
`O=C(CC1(O)C(=O)Nc2c(Cl)ccc(Cl)c21)c1ccc(C2CC2)c(F)c1` (single isomer, unassigned) [Cmpd 37, 4,7-Dichloro-3-(2-(4-cyclopropyl-3-fluorophenyl)-2-oxoethyl)-3-hydroxyindolin-2-one]: under setting [14], the “Remaining (NCF = 60 min)” value came to 103.4%. The figures for the half-life in [11] and in series [12] (liver microsomes) were 3.5 min and 20.7 min, respectively.
For the compound `O=C(CC1(O)C(=O)Nc2c(Cl)ccc(Cl)c21)c1ccc(C2CC2)cc1F` (single isomer, unassigned) [Cmpd 39, 4,7-Dichloro-3-(2-(4-cyclopropyl-2-fluorophenyl)-2-oxoethyl)-3-hydroxyindolin-2-one], the “Remaining (NCF = 60 min)” value under setting [14] worked out at 100.0%. In addition, in series [11], the half-life stood at 3 min.
`CCOc1ccc2ccc(=O)oc2c1` [7-Ethoxycoumarin, reference compound]: the half-life in [4] was 37.9 min; in series [5] it was 38.2 min; in series [7] it was 45.3 min. The “Half life of cmpds” value in series [6] is on record as 9.14 min.
With `O=c1ccc2ccc(O)cc2o1` [7-Hydroxycoumarin, reference compound], the half-life in series [4] amounted to 15.8 min; in series [6], 9.38 min; in [7], 20.8 min. For the same compound, the “Half life of cmpds” value in series [5] is on record as 12.41 min.
For `O=C(O)Cc1ccccc1Nc1c(Cl)cccc1Cl` [Diclofenac, reference compound], the “Remaining (NCF = 60 min)” value (human, microsomes, 1 h) is given as 77.8%; the “Remaining (NCF = 60 min)” value in [8] (rat, microsomes, 1 h) was determined as 94.1%; the “Remaining (NCF = 60 min)” value in [9] (mouse, microsomes, 1 h) was 88.1%; the “Remaining (NCF = 60 min)” value in [10] (dog, microsomes, 1 h) is given as 89.6%. Moreover, in [12] (microsomes), the half-life was determined as 39.2 min.
For `C[C@]12CC[C@H]3[C@@H](CCC4=CC(=O)CC[C@@]43C)[C@@H]1CC[C@@H]2O` [Testosterone, reference compound], the “Remaining (NCF = 60 min)” value under setting [14] was found to be 88.1%, the “Remaining (NCF = 60 min)” value in series [8] (setting [15]) came out at 87.3%, the “Remaining (NCF = 60 min)” value in series [9] (setting [16]) amounted to 83.6% and the “Remaining (NCF = 60 min)” value in series [10] (setting [17]) worked out at 91.0%. The compound also showed a half-life in series [12] (microsomes) of 3.3 min.
